# Experimental data published in patent publication US20100083405A1, “Method For Controlling Seed Germination In Non-Dormant Seeds And Use Thereof” (priority 2008, published 2010).
# T1: HA-ABI5, Q9SJN0
# T1 chain: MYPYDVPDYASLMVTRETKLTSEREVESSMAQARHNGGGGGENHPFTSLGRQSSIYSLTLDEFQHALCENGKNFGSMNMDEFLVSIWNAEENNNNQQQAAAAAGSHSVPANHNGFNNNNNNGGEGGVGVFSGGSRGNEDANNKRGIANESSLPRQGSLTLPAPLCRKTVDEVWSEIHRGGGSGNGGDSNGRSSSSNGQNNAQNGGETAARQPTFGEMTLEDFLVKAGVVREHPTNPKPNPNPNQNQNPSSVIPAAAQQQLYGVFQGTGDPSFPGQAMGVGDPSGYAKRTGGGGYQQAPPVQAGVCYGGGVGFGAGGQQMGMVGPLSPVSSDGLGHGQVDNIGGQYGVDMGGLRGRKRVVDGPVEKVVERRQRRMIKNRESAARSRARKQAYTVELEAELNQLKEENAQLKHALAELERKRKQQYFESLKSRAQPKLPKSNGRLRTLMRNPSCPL
# B1: HA-PKABA1 (protein)
# chain: MYPYDVPDYASLMDRYEVVRDIGSGNFGVAKLVRDVRTREHFAVKFIERGHKIDEHVQREIMNHRSLKHPNIIRFKEVVLTPTHLAIVMEYASGGELFQRICNAGRFSEDEGRFFFQQLISGVSYCHSMQVCHRDLKLENTLLDGSVAPRLKICDFGYSKSSVLHSQPKSTVGTPAYIAPEVLSRREYDGKVADVWSCGVTLYVMLVGAYPFEDPDEPRNFRKTIARILSVQYSVPDYVRVSMDCIHLLSRIFVGNPQQRITIPEIKNHPWFLKRLPVEMTDEYQRGMQLADMNTPSQSLEEAMAIIQEAQKPGHNALGLAGQVACLGSMDLDDIDFDVDDIDIENSGDFVCPL
# How the values were obtained:
# HA-ABI5 [1] = test: HA-ABI5 mobility/phosphorylation (Western blot) in WT/35S::HA-ABI5 seeds; type: in vivo, Arabidopsis
# Method: (§1) The methods used were as described in Lopez-Molina et al., 2001, above.
# Thus, low GA levels also stimulate ABI5 activity and phosphorylation. […] An antibody to HA was used to reveal HA-ABI5 protein. λ phosphatase was inactivated by heat (65° C. for 20 min).
# WT/35S::HA-ABI5 seeds [2] = test: Germination assay, WT/35S::HA-ABI5 seeds; type: in vivo, Arabidopsis
# Description: (§2) Wild type (WT) Arabidopsis (Columbia ecotype) was used. The transgenic Arabidopsis line (Ler ecotype) constitutively overexpressing and accumulating ABI5 protein fused to hemagglutinin (HA) peptide tag (referred to as WT/35S::HA-ABI5 plants) was generated as described in Lopez-Molina et al., 2001, above. Transgenic Arabidopsis lines were generated using the Agrobacterium tumefaciens vacuum-infiltration method (Bechtold and Pelletier, 1998, Methods Mol. Biol. 82, 259-266). Seeds (T1) from infiltrated plants were plated in selection medium as described (Zuo et al., 2000, above; Lopez-Molina et al., 2001, above). Non-dormant seeds are used in absence of seed stratification procedure. The infiltration in the plant ovule is performed following the standard “Floral Dip” (Arabidopsis protocol Edited by J M Martinez-Zapater and Julio Salina. Humana Press, “In Planta Agrobacterium-Mediated Transformation of Adult Arabidopsis thaliana Plants by Vacuum infiltration”, Page 259).
# (§3) When seeds are sown under “normal conditions” it refers to conditions where seeds are imbibed in a standard germination medium and provided with light (germination assay condition below). “ABA conditions” and “low GA conditions” are respectively conditions where ABA (e.g. 5 μM) and paclobutrazol (e.g. 5 μM, PAC), an inhibitor of GA synthesis, are added to the medium. […]
# ABI5 [3] = test: ABI5 mRNA and protein levels (Northern and Western blot) in WT seeds; type: in vivo, Arabidopsis
# Method: Total RNA extraction was performed as described by Vicient and Delseny, 1999, Anal. Biochem., 268, 412-413. Northern blot hybridizations were by standard procedures; RNA immobilized on membranes was stained with methylene blue and used as a loading control (Sambrook et al., 1989, above). For ABI5, full length ORF DNA probe (SEQ ID NO: 1) were amplified from cDNA with 5′[…] (SEQ ID NO: 8) 5′ […] (SEQ ID NO: 9).
# The mRNA and protein expression of ABI5 was characterized in WT (Columbia ecotype) seeds at different times after their imbibition.
# Under normal conditions, ABI5 mRNA and protein levels decreased from peak levels in WT dry seeds (DS) to undetectable levels 24 h to 48 h after imbibition as shown respectively by Northern blot (2 μg of total RNA per lane) and Western blot analyses (10 μg of total protein per lane), where protein extracts were stained with red Ponceau prior to incubation with antibodies against ABI5 (Ponceau) (FIGS. 2A and 2B) (Lopez-Molina et al., 2001, above).
# WT seed = test: Germination assay, WT seeds; type: in vivo, Arabidopsis; conditions: low PAC concentrations (0.125 μM)
# Description: as §2, §3
# [4] = system: WT/35S::HA-ABI5 plants transformed with the ind::HA-PKABA1 DNA construct; test: Germination assay, WT/35S::HA-ABI5 transformed with ind::HA-PKABA1; type: in vivo, Arabidopsis
# Method: All seed batches compared in this study were harvested on the same day from plants grown side by side (i.e. identical environmental conditions). Dry siliques were obtained about 8 weeks after planting and left for a further 4 weeks at room temperature prior to seed harvesting. Seeds were then permanently stored at 4° C. Seeds obtained in this manner lacked dormancy. A minimum of three independently grown seed batches were used for measuring percent TR and ER. For TR and ER assays, seeds were surface sterilized as described in Lopez-Molina and Chua, 2000, above, and sown in plates with MS medium containing 0.8% (wt/vol.) Bacto-Agar (Applichem). Plates were incubated in a climate-controlled room (20-25° C., 16 h light/day, light intensity 80 ME/m^2/s, humidity 70%). Between 100 and 300 seeds were examined with a Stemi 2000 (Zeiss) stereomicroscope and photographed with a high-resolution digital camera (Canon Power G6, 7.1 Megapixels) at different times of seed imbibition. Photographs were enlarged electronically for measurement of TR and ER.
# The first primer contains an XhoI site and the HA sequence (MYPYDVPDYASL (SEQ ID NO: 5) of SEQ ID NO:10), while the second contains a SpeI site. Both restriction sites were used for cloning into a plasmid pER8 (AN AF309825) such as described in Zuo et al., 2000, Plant J., 24, 265-273. […]
# HA-PKABA1 = HA-PKABA1 protein levels (Western blot) in seeds transformed with ind::HA-PKABA1; type: in vivo, Arabidopsis; conditions: 50 μM 17β-estradiol, 48 h after seed imbibition, normal conditions
# Description: The first primer contains an XhoI site and the HA sequence (MYPYDVPDYASL (SEQ ID NO: 5) of SEQ ID NO:10), while the second contains a SpeI site. Both restriction sites were used for cloning into a plasmid pER8 (AN AF309825) such as described in Zuo et al., 2000, Plant J., 24, 265-273. The resulting ind::HA-PKABA1 binary vector was then transformed into previously described WT/35S::HA-ABI5 line (Zuo et al., 2000, above; Lopez-Molina et al., 2001, above). As a negative control, WT plants were transformed with the same ind::HA-PKABA1 construct.
# HA-ABI5 [5] = conditions: low ABA concentration 0.5 μM; cited from earlier work
# WT/35S::HA-ABI5 seeds [6] = conditions: low ABA concentration 0.5 μM; cited from earlier work
# HA-ABI5 [7] = test: HA-ABI5 mobility/phosphorylation (Western blot) in WT/35S::HA-ABI5 lines transformed with ind::HA-PKABA1; type: in vivo, Arabidopsis; conditions: excess GA in the medium, inducer present
# Method: as §1
# The mobility differences of HA-ABI5 protein isolated from WT/35S::HA-ABI5 lines transformed with a ind::HA-PKABA1 DNA construct are analyzed by Western blot under the indicated germination conditions. As observed upon ABA treatment, induction of HA-PKABA1 protein triggered ABI5 phosphorylation, detected as a slower ABI5 protein mobility, which could be eliminated upon phosphatase treatment (FIG. 4B).
# ABI5 [8] = test: ABI5 protein levels (Western blot) in gal-3 seeds; type: in vivo, Arabidopsis; conditions: gal-3 seeds treated with GA, as early as 48 hours after imbibition
# HA-ABI5, Q9SJN0 = molecular target: T1, HA-ABI5, Q9SJN0
# [9] = GA 50 μM added to the germination medium with ABA
molecule,measurement,setting,value
"CC(C)(C)[C@@H](O)[C@@H](Cc1ccc(Cl)cc1)n1cncn1 (racemic) [PAC, paclobutrazol]",HA-ABI5 migration in SDS-PAGE gels,HA-ABI5 [1]; PAC 0.125 μM,slower HA-ABI5 migration
same,seeds germinated,WT/35S::HA-ABI5 seeds [2]; after one week on 0.125 μM PAC,less than 20%
same,ABI5 expression (mRNA and protein),"ABI5 [3]; 5 μM PAC, up to 96 hours after imbibition",increased and maintained ABI5 expression
same,WT seed germination,WT seed,do not prevent WT seed germination
C[C@]12CC[C@@H]3c4ccc(O)cc4CC[C@H]3[C@@H]1CC[C@@H]2O [17β-estradiol],germination after removal of the inducer,[4]; 24 h to 56 h upon transfer to medium without inducer (50 μM before),100%
same,HA-PKABA1 protein levels,HA-PKABA1,could be detected only in presence of the inducer
"CC1=CC(=O)CC(C)(C)[C@@]1(O)/C=C/C(C)=C\C(=O)O [ABA, abscisic acid]",ABI5 mRNA and protein expression,"ABI5 [3]; ABA 5 μM, after imbibition",stimulated
same,HA-ABI5 phosphorylation,HA-ABI5 [5],triggered HA-ABI5 phosphorylation
same,germination response,WT/35S::HA-ABI5 seeds [6],hypersensitive responses
gibberellins [GA],inducer-imposed germination arrest,"[4]; additional GA 50 μM in the medium, inducer present",did not counteract the inducer-imposed arrest
same,ABA-dependent ABI5 phosphorylation,HA-ABI5 [1]; [9],did not alter ABA-dependent ABI5 phosphorylation
same,HA-PKABA1-dependent phosphorylation of ABI5,HA-ABI5 [7],did not prevent HA-PKABA1-dependent phosphorylation of ABI5
same,ABI5 protein,ABI5 [8],could not be detected
same,repression of seed germination imposed by ABA,WT/35S::HA-ABI5 seeds [2]; [9],did not overcome the repression of seed germination imposed by ABA
B1,"ABI5 phosphorylation in planta, seen as slower HA-ABI5 mobility on Western blot (SDS-PAGE), sensitive to phosphatase","HA-ABI5, Q9SJN0","induction of HA-PKABA1 protein triggered ABI5 phosphorylation, detected as a slower ABI5 protein mobility, which could be eliminated upon phosphatase treatment"
